Series [1] deals with factor Xa. Description: Determination of anticoagulant factor Xa activity (substrate developing method as for low molecular heparin). Format: biochemical. The procedure: (§1) The pentose (API) in Example 10 is subjected to a biological test: anticoagulant factor Xa activity and half-life (Ti/2), as shown in Table 1. Determination of anticoagulant factor Xa activity: Refer to substrate developing method for determination of anticoagulant factor Xa of low molecular heparin. Measurement of half-life: inject this anticoagulant pentose (dosage 1 mg/Kg) in male Wistar rats intravenously for pharmacokinetic study, calculate the concentration of this compound in blood by measuring the anticoagulant factor Xa in plasma, and calculate the half-life (T1/2) by the concentration-time curve.

Series [2] in a line: Half-life after intravenous injection in male Wistar rats, concentration from plasma anti-factor Xa. In kind it is in vivo. Particulars: 1 mg/Kg, T1/2 from concentration-time curve. As for the experimental part: as §1

As for `CO[C@H]1O[C@H](COS(=O)(=O)O)[C@@H](O[C@@H]2O[C@@H](C(=O)O)[C@@H](O[C@H]3O[C@H](COS(=O)(=O)O)[C@@H](O[C@@H]4O[C@H](C(=O)O)[C@@H](O[C@H]5O[C@H](COS(=O)(=O)O)[C@@H](O)[C@H](O)[C@H]5NS(=O)(=O)O)[C@H](O)[C@H]4O)[C@H](OS(=O)(=O)O)[C@H]3NS(=O)(=O)O)[C@H](O)[C@H]2OS(=O)(=O)O)[C@H](O)[C@H]1NS(=O)(=O)O` [Fondaparinux sodium], the “Anticoagulant Factor Xa” value in series [1] is on record as 750 + 30 IU/mg. Besides, the Half-life in series [2] is given as 0.6 ± 0.1 H.

For the origin of these results see US20220289782A1, “A Compound with High Anticoagulant Activity and Its Preparation Method and Application” (SUZHOU WISMED PHARMACEUTICALS CO LTD, priority 2019, published 2022).
